Results as given in US6211244A, “Calcium receptor-active compounds” (priority 1995, dated 2001).

Key:
[1] = tested on: human parathyroid cell calcium receptor; experiment: stimulation of calcium-activated chloride currents in Xenopus oocytes injected with calcium receptor cRNA; format: cell-based; details: calcium-activated chloride current
Method: Representative cDNA inserts for both size classes were subcloned into the plasmid vector pBluescript SK. Linearization followed by in vitro transcription using T7 RNA polymerase produced cRNA transcripts. The cRNA transcripts were injected into Xenopus oocytes (150 ng/μl RNA; 50 nl/oocyte) for functional analysis. Following incubation periods of 2-4 days, the oocytes were assayed for the presence of functional calcium receptors. Both clone types gave rise to functional calcium receptors as assessed by the stimulation of calcium-activated chloride currents upon addition of appropriate calcium receptor agonists. […] Thus, both clones encode a functional, human parathyroid cell calcium receptor.
In addition, pHuPCaR4.0 encodes glutamine (Gln) at aa#925 and glycine (Gly) at position 990 whereas pHuPCaR5.2 encodes arg (Arg) at both equivalent positions. The human CaR gene encodes for Gln and Arg, respectively, at these positions. The difference between the pHuPCaR4.0 cDNA compared to human DNA appears to represent a true sequence polymorphism within the human population while the single base change in pHuPCaR5.2 probably reflects a mutation which occurred during its cloning. […] However, it is possible that these two receptor isoforms are functionally and/or pharmacologically distinct.

[2] = tested on: HuPCaR 5.2 calcium receptor; experiment: fluorescence ([Ca^2+ ]i) in HEK 293 cells transfected with Cep4B containing the HuPCaR 5.2 insert; format: cell-based, human; details: Ca^2+ 10 mM, Mg^2+ 20 mM; 37° C.
Method: Clonal cell lines that stably express the two human and the bovine calcium receptors have been isolated. Calcium receptor cDNAs were subcloned in two different, commercially available expression vectors; pMSG (obtained from Pharmacia) and Cep4B (obtained from Invitrogen). The first vector contains the selectable marker gene for xanthine-guanine phosphoribosyltransferase (gpt) allowing stably transfected cells to overcome the blockade of the purine biosynthetic pathway imposed by addition of 2 μg/ml aminopterin and 25 μg/ml mycophenolic acid. The second vector encodes a gene conferring resistance to the antibiotic hygromycin (used at 200 μg/ml). […]
Cells obtained from the pool of hygromycin selected HEK 293 cells transfected with Cep4B containing the HuPCaR 5.2 insert were plated on collagen coated Aklar squares which had been placed into individual wells of 12-well tissue culture plates. […] Measurements of fluorescence in response to calcium receptor agonists were performed at 37° C. in a spectrofluorimeter using excitation and emission wavelengths of 340 and 510 nm, respectively. For signal calibration, Fmax was determined after addition of ionomycin (40 μM) and the apparent Fmin was determined by addition of 0.3 M EGTA, 2.5 M Tris-HCl; pH 10.

calcium receptor = details: cited from earlier work
human calcium receptor = molecular target: T1, human calcium receptor (Homo sapiens, UniProt P41180, R990G); experiment: increases in [Ca^2+ ]i in HEK-293 cells expressing the human calcium receptor (fura-2 loaded HEK 293/pHuPCaR4.0 cells), % activity; format: cell-based
T1 construct: expressed in transfected cells; host or cells: HEK 293
T1 sequence (P41180 20-1078 R990G): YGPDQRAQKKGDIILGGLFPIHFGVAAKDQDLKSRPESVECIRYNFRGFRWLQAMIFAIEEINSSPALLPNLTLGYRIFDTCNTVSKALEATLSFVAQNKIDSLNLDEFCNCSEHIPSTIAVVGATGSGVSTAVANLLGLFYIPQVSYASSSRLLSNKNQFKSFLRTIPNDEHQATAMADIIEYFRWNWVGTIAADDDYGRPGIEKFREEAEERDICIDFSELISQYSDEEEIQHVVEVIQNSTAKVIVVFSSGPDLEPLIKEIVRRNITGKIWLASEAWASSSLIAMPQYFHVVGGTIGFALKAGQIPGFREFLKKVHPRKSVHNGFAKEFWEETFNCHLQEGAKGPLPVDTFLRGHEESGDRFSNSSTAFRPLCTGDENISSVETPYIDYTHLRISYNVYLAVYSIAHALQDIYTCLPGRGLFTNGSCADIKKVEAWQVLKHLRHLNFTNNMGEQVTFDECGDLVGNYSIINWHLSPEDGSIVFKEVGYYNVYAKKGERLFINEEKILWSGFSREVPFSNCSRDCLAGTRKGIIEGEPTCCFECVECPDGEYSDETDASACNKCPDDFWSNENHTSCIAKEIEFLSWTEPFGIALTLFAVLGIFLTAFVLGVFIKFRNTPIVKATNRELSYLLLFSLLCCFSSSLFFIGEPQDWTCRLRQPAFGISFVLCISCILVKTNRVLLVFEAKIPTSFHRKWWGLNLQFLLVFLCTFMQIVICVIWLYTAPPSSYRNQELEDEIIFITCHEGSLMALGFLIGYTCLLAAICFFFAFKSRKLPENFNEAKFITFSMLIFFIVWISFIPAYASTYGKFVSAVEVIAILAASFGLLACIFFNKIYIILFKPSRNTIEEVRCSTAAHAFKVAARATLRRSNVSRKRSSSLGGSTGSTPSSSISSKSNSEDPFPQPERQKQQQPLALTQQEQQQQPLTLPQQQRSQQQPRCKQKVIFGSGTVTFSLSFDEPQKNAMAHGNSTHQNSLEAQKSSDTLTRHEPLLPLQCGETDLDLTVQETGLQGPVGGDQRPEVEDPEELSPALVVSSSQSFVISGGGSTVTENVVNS

[3] = tested on: Parathyroid Cell Calcium Receptor; experiment: EC50 in parathyroid cells or HEK 293/pHuPCaR4.0 cells loaded with fura-2; format: cell-based, calves and humans; details: parathyroid cells or HEK 293/pHuPCaR4.0, fura-2; cell type not given per value
Method: This section describes procedures used to obtain parathyroid cells from calves and humans, and to use the parathyroid cells to measure calcium receptor activity.
Human parathyroid glands, were obtained from patients undergoing surgical removal of parathyroid tissue for primary or uremic hyperparathyroidism (uremic HPT), and were treated similarly to bovine tissue.
Glands were trimmed of excess fat and connective tissue and then minced with fine scissors into cubes approximately 2-3 mm on a side. Dissociated parathyroid cells were prepared by collagenase digestion and then purified by centrifugation in Percoll buffer.
Primary culture also has the advantage that cells can be labeled with isotopes to near isotopic equilibrium, as is necessary for studies involving measurements of inositol phosphate metabolism.
ITS+ is a premixed solution containing insulin, transferrin, selenium, and bovine serum albumin (BSA)-linolenic acid (Collaborative Research, Bedford, Mass.). The cells were then transferred to plastic flasks (75 or 150 cm^2; Falcon) and incubated overnight at 37° C. in a humid atmosphere of 5% CO2. No serum is added to these overnight cultures, since its presence allows the cells to attach to the plastic, undergo proliferation, and dedifferentiate.
The cells were then pelleted, resuspended in the same buffer, but lacking the ester, and incubated a further 15 minutes at 37° C. The cells were subsequently washed twice with PCB containing 0.5 mM CaCl2 and 0.5% BSA and maintained at room temperature (about 20° C.). Immediately before use, the cells were diluted five-fold with prewarmed 0.5 mM CaCl2 -PCB to obtain a final BSA concentration of 0.1%. The concentration of cells in the cuvette used for fluorescence recording was 1-2×10^6 /ml.
The fluorescence of indicator-loaded cells was measured at 37° C. in a spectrofluorimeter (Biomedical Instrumentation Group, University of Pennsylvania, Philadelphia, Pa.) equipped with a thermostated cuvette holder and magnetic stirrer using excitation and emission wavelengths of 340 and 510 nm, respectively. […] To correct the calibration for dye leakage, cells were placed in the cuvette and stirred at 37° C. for 2-3 minutes. The cell suspension was then removed, the cells pelleted, and the supernatant returned to a clean cuvette. […] This estimate was subtracted from the apparent Fmin.
HEK 293 cells transfected with pHuPCaR4.0 were loaded with fura-2 by incubating the cells in Dulbecco's modified Eagle's media buffered with 20 mM HEPES containing about 5 μM […] for one hour at room temperature. Cell were then rinsed with Hank's balanced salt solution buffered with 20 mM HEPES containing 1 mM CaCl2 and 1 mM MgCl2. Compounds to be tested were then added to the cells and fluorescence was measured (excitation and emission wavelengths of 340 and 510 nm, respectively).

human subjects = experiment: pharmacological activity in human subjects after oral doses; format: in vivo; details: 10-400 mg oral doses
Source text: Proper dosing can also be carried out using standard techniques. […] Thus, the glucuronide conjugate of 17Q may be exerting some beneficial effect.

SMILES | activation of oocyte-expressed calcium receptor [1] | increases in [Ca^2+ ]i [2] | binding site on the calcium receptor (calcium receptor) | % activity (human calcium receptor; 33 ng/mL) | % activity (human calcium receptor; 330 ng/mL) | EC50 [3] | pharmacological activity in human subjects (human subjects)
COc1cccc([C@@H](C)NCCCc2ccccc2)c1 [NPS R-467] | activated the oocyte-expressed receptor at about the same concentrations known to be effective for the native parathyroid cell receptor | Robust increases in [Ca^2+ ]i | binds to the calcium receptor at a different site (i.e., an allosteric site) than extracellular calcium | – | – | – | –
COc1cccc([C@@H](C)NCCCc2ccccc2Cl)c1 [NPS R-568, reference compound] | activated the oocyte-expressed receptor at about the same concentrations known to be effective for the native parathyroid cell receptor | – | – | 69% | 95% | 600 nM | showed pharmacological activity in human subjects
